Activity calls are given as the source filed them. The rule behind the calls is not given here.
Tests used:
[1] = test system: SARS-CoV-2; assay: Antiviral activity against luciferase-expressing pseudovirus encoding SARS-CoV-2 Omicron expressing S protein infected in human 293T/ACE2 cells assessed as reduction of viral growth measured after 48 hrs by luciferase assay; type: functional, organism-based; conditions: Severe acute respiratory syndrome coronavirus 2, 293T/ACE2, 48 h
[2] = Cytotoxicity against human 293T/ACE2 cells assessed as reduction in cell growth measured after 48 hrs by MTT assay; type: functional
[3] = Selectivity index, ratio of CC50 for human 293T/ACE2 cells to EC50 for SARS-CoV-2 Omicron; type: toxicity; conditions: read-out: Ratio CC50/EC50
[4] = molecular target: Spike glycoprotein/Angiotensin-converting enzyme 2 (Severe acute respiratory syndrome coronavirus 2) (UniProt Q9BYF1+P0DTC2); assay: Inhibition of SARS-COV-2 S1 protein/human ACE2 receptor interaction at 20 uM by co-immunoprecipitation assay
[5] = Metabolic stability in rat liver microsomes assessed as intrinsic clearance measured upto 250 mins by LC-MS/MS analysis; type: ADME, Microsome; conditions: 4.167 h
[6] = test system: SARS-CoV-2; assay: Antiviral activity against SARS-COV-2 Omicron expressing S protein and co-expressing EGFP infected in African green monkey Vero E6 cells assessed as inhibition of S protein mediated membrane fusion at 10 uM incubated of 30 mins measured after 24 hrs by inverted fluorescence microscopic analysis; type: functional, organism-based; conditions: Severe acute respiratory syndrome coronavirus 2, time 24.5 hrs
[7] = test system: SARS-CoV-2; assay: Antiviral activity against vesicular stomatitis virus glycoprotein expressing pseudovirus encoding SARS-CoV-2 infected in human 293T/ACE2 cells assessed as reduction of viral growth at 0.078 to 10 uM measured after 48 hrs by luciferase assay; type: functional, organism-based; conditions: Severe acute respiratory syndrome coronavirus 2, dose 0.078-10 µM
[8] = Metabolic stability in rat liver microsomes assessed as half life measured upto 250 mins by LC-MS/MS analysis; type: ADME, Microsome; conditions: 4.167 h
[9] = test system: SARS-CoV-2; assay: Antiviral activity against luciferase-expressing pseudovirus encoding SARS-CoV-2 Omicron expressing S protein infected in human 293T/ACE2 cells assessed as reduction of viral growth at 0.078 to 10 uM measured after 48 hrs by luciferase assay; type: functional, organism-based; conditions: Severe acute respiratory syndrome coronavirus 2, dose 0.078-10 µM
[10] = Stability of compound in rat plasma assessed as change in retention time of parent compound incubated for 180 mins by LC-MS/MS analysis; type: ADME, cell-free; conditions: 3 h
[11] = test system: Severe acute respiratory syndrome coronavirus 2; assay: Inhibition of 6-helical bundle formation in SARS-CoV-2 Spike protein HR1/HR2 domains in presence of HR-1P and HR2P at 20 uM incubated for 30 mins by circular dichroism spectroscopy assay
[12] = molecular target: Spike glycoprotein (Severe acute respiratory syndrome coronavirus 2, UniProt P0DTC2); assay: Binding affinity to C-terminal 6His-tagged SARS-COV-2 recombinant S protein (Val16 to Arg685 residues) expressed in mammalian expression system assessed as dissociation constant by SPR analysis
[13] = test system: SARS-CoV-2; assay: Antiviral activity against luciferase-expressing pseudovirus encoding SARS-CoV-2 Omicron S/HIV infected in human 293T/ACE2 cells assessed as reduction of viral growth at 10 uM measured after 48 hrs by luciferase assay relative to control; type: functional, Severe acute respiratory syndrome coronavirus 2; parameters: scale not given: the % may be the effect or the level left

SMILES | EC50 [1] [µM] | CC50 [2] [µM] | selectivity ratio [3] | also measured
C=C(C)[C@@H]1CC[C@]2(C(=O)NCc3ccc4ccccc4c3)CC[C@]3(C)[C@H](CC[C@@H]4[C@@]5(C)CC[C@H](O[C@@H]6O[C@H](CO)[C@@H](O[C@@H]7O[C@@H](C)[C@H](O)[C@@H](O)[C@H]7O)[C@H](O)[C@H]6O[C@@H]6O[C@@H](C)[C@H](O)[C@@H](O)[C@H]6O)C(C)(C)[C@@H]5CC[C@]43C)[C@@H]12 | 2.67 | 167 | 62.7 | inhibition [4]: inactive
C=C(C)[C@@H]1CC[C@]2(C(=O)Nc3ccc(Cl)cc3)CC[C@]3(C)[C@H](CC[C@@H]4[C@@]5(C)CC[C@H](O[C@@H]6O[C@H](CO)[C@@H](O[C@@H]7O[C@@H](C)[C@H](O)[C@@H](O)[C@H]7O)[C@H](O)[C@H]6O[C@@H]6O[C@@H](C)[C@H](O)[C@@H](O)[C@H]6O)C(C)(C)[C@@H]5CC[C@]43C)[C@@H]12 | 6.5 | 87.5 | 13.5 | 
C=C(C)[C@@H]1CC[C@]2(C(=O)Nc3cccc(Cl)c3)CC[C@]3(C)[C@H](CC[C@@H]4[C@@]5(C)CC[C@H](O[C@@H]6O[C@H](CO)[C@@H](O[C@@H]7O[C@@H](C)[C@H](O)[C@@H](O)[C@H]7O)[C@H](O)[C@H]6O[C@@H]6O[C@@H](C)[C@H](O)[C@@H](O)[C@H]6O)C(C)(C)[C@@H]5CC[C@]43C)[C@@H]12 | 6.63 | 56.4 | 8.51 | 
C=C(C)[C@@H]1CC[C@]2(C(=O)OC)CC[C@]3(C)[C@H](CC[C@@H]4[C@@]5(C)CC[C@H](O[C@@H]6O[C@H](CO)[C@@H](O[C@@H]7O[C@@H](C)[C@H](O)[C@@H](O)[C@H]7O)[C@H](O)[C@H]6O[C@@H]6O[C@@H](C)[C@H](O)[C@@H](O)[C@H]6O)C(C)(C)[C@@H]5CC[C@]43C)[C@@H]12 | 7.04 | 40.9 | 5.8 | 
C=C(C)[C@@H]1CC[C@]2(C(=O)Nc3ccccc3OC)CC[C@]3(C)[C@H](CC[C@@H]4[C@@]5(C)CC[C@H](O[C@@H]6O[C@H](CO)[C@@H](O[C@@H]7O[C@@H](C)[C@H](O)[C@@H](O)[C@H]7O)[C@H](O)[C@H]6O[C@@H]6O[C@@H](C)[C@H](O)[C@@H](O)[C@H]6O)C(C)(C)[C@@H]5CC[C@]43C)[C@@H]12 | 6.11 | 83.2 | 13.6 | 
C=C(C)[C@@H]1CC[C@]2(C(=O)NOc3ccccc3)CC[C@]3(C)[C@H](CC[C@@H]4[C@@]5(C)CC[C@H](O[C@@H]6O[C@H](CO)[C@@H](O[C@@H]7O[C@@H](C)[C@H](O)[C@@H](O)[C@H]7O)[C@H](O)[C@H]6O[C@@H]6O[C@@H](C)[C@H](O)[C@@H](O)[C@H]6O)C(C)(C)[C@@H]5CC[C@]43C)[C@@H]12 | 9.88 | 116 | 11.7 | 
C=C(C)[C@@H]1CC[C@]2(C(=O)Nc3cccc(OC)c3)CC[C@]3(C)[C@H](CC[C@@H]4[C@@]5(C)CC[C@H](O[C@@H]6O[C@H](CO)[C@@H](O[C@@H]7O[C@@H](C)[C@H](O)[C@@H](O)[C@H]7O)[C@H](O)[C@H]6O[C@@H]6O[C@@H](C)[C@H](O)[C@@H](O)[C@H]6O)C(C)(C)[C@@H]5CC[C@]43C)[C@@H]12 | 2.73 | 73.3 | 26.9 | 
C=C(C)[C@@H]1CC[C@]2(C(=O)NCCc3ccccc3)CC[C@]3(C)[C@H](CC[C@@H]4[C@@]5(C)CC[C@H](O[C@@H]6O[C@H](CO)[C@@H](O[C@@H]7O[C@@H](C)[C@H](O)[C@@H](O)[C@H]7O)[C@H](O)[C@H]6O[C@@H]6O[C@@H](C)[C@H](O)[C@@H](O)[C@H]6O)C(C)(C)[C@@H]5CC[C@]43C)[C@@H]12 | 8.47 | 226 | 26.7 | 
C=C(C)[C@@H]1CC[C@]2(C(=O)Nc3ccc(OC)cc3)CC[C@]3(C)[C@H](CC[C@@H]4[C@@]5(C)CC[C@H](O[C@@H]6O[C@H](CO)[C@@H](O[C@@H]7O[C@@H](C)[C@H](O)[C@@H](O)[C@H]7O)[C@H](O)[C@H]6O[C@@H]6O[C@@H](C)[C@H](O)[C@@H](O)[C@H]6O)C(C)(C)[C@@H]5CC[C@]43C)[C@@H]12 | 9.44 | 178 | 18.9 | 
C=C(C)[C@@H]1CC[C@]2(C(=O)Nc3ccc4ccccc4c3)CC[C@]3(C)[C@H](CC[C@@H]4[C@@]5(C)CC[C@H](O[C@@H]6O[C@H](CO)[C@@H](O[C@@H]7O[C@@H](C)[C@H](O)[C@@H](O)[C@H]7O)[C@H](O)[C@H]6O[C@@H]6O[C@@H](C)[C@H](O)[C@@H](O)[C@H]6O)C(C)(C)[C@@H]5CC[C@]43C)[C@@H]12 | 0.82 | 60.3 | 73.6 | CLH [5]: 1.15 µL/min/mg; Activity [6]: Active; Activity [7]: inactive; t1/2 [8]: 2.8202 h; Activity [9]: Dose-Dependent Effect; Stability [10]: Stable; inhibition [11]: inactive; Kd [12]: 3.26 µM; Activity [13]: 90%; inhibition [4]: inactive
C=C(C)[C@@H]1CC[C@]2(C(=O)N(C)c3ccccc3)CC[C@]3(C)[C@H](CC[C@@H]4[C@@]5(C)CC[C@H](O[C@@H]6O[C@H](CO)[C@@H](O[C@@H]7O[C@@H](C)[C@H](O)[C@@H](O)[C@H]7O)[C@H](O)[C@H]6O[C@@H]6O[C@@H](C)[C@H](O)[C@@H](O)[C@H]6O)C(C)(C)[C@@H]5CC[C@]43C)[C@@H]12 | 5.06 | 69.5 | 13.7 | 
C=C(C)[C@@H]1CC[C@]2(C(=O)NCc3ccccc3)CC[C@]3(C)[C@H](CC[C@@H]4[C@@]5(C)CC[C@H](O[C@@H]6O[C@H](CO)[C@@H](O[C@@H]7O[C@@H](C)[C@H](O)[C@@H](O)[C@H]7O)[C@H](O)[C@H]6O[C@@H]6O[C@@H](C)[C@H](O)[C@@H](O)[C@H]6O)C(C)(C)[C@@H]5CC[C@]43C)[C@@H]12 | 5.52 | 248 | 44.9 | 
C=C(C)[C@@H]1CC[C@]2(C(=O)Nc3ccc4ncccc4c3)CC[C@]3(C)[C@H](CC[C@@H]4[C@@]5(C)CC[C@H](O[C@@H]6O[C@H](CO)[C@@H](O[C@@H]7O[C@@H](C)[C@H](O)[C@@H](O)[C@H]7O)[C@H](O)[C@H]6O[C@@H]6O[C@@H](C)[C@H](O)[C@@H](O)[C@H]6O)C(C)(C)[C@@H]5CC[C@]43C)[C@@H]12 | 8.43 | 69.6 | 8.25 | 
C=C(C)[C@@H]1CC[C@]2(C(=O)Nc3ccccc3)CC[C@]3(C)[C@H](CC[C@@H]4[C@@]5(C)CC[C@H](O[C@@H]6O[C@H](CO)[C@@H](O[C@@H]7O[C@@H](C)[C@H](O)[C@@H](O)[C@H]7O)[C@H](O)[C@H]6O[C@@H]6O[C@@H](C)[C@H](O)[C@@H](O)[C@H]6O)C(C)(C)[C@@H]5CC[C@]43C)[C@@H]12 | 12.5 | > 200 | > 16 | inhibition [4]: inactive

Source: ChEMBL document CHEMBL5370556, “Optimization, and biological evaluation of 3-O-β-chacotriosyl betulinic acid amide derivatives as novel small-molecule Omicron” (Eur J Med Chem, 2023)
